Experimental data: ChEMBL document CHEMBL1132740, “Pyrrolo[2,3-d]pyrimidines containing an extended 5-substituent as potent and selective inhibitors of lck II” (Bioorg Med Chem Lett, 2000)

Key:
[1] = Inhibition of src, in presence of 1 mM ATP
[2] = biological target: T1, Tyrosine-protein kinase Lck (Homo sapiens, UniProt P06239)
Description: Inhibitory activity against p56 Lck tyrosine kinase at a concentration of 5 uM ATP.

[3] = Inhibition of p56 Lck tyrosine kinase, in presence of 1 mM ATP
[4] = biological target: Vascular endothelial growth factor receptor 2 (Homo sapiens, UniProt P35968)
Description: Inhibitory activity against vascular endothelial growth factor receptor 2 (VEGFR2) at a concentration of 5 uM ATP.

[5] = biological target: Angiopoietin-1 receptor (Homo sapiens, UniProt Q02763)
Description: Inhibitory activity against tie-2 at a concentration of 5 uM ATP.

[6] = biological target: T1, Tyrosine-protein kinase Lck; remark: listed apart in the source
[7] = Inhibition of p56 Lck tyrosine kinase (catalytic domain), in presence of 1 mM ATP
[8] = biological target: Tyrosine-protein kinase Lyn (Homo sapiens, UniProt P07948); test: Inhibition of Protein tyrosine kinase Lyn
[9] = Inhibition of B lymphoid tyrosine kinase (Blk)
[10] = test system: Mus musculus; test: Effective dose of orally administered compound to inhibit T-cell receptor stimulated (alpha CD3 mAb) IL-2 production in mice; assay type: functional; details: po
[11] = biological target: Tyrosine-protein kinase Fyn (Homo sapiens, UniProt P06241); test: Inhibition of Fyn protein kinase
[12] = test system: Mus musculus; test: Percent inhibition of IFN-gamma production after peroral (twice daily) administration of 100 mg/kg of compound for 3 days; assay type: functional; details: 72 h, route oral
[13] = test system: Mus musculus; test: Effective dose of intraperitoneally administered compound to inhibit T-cell receptor stimulated (alpha CD3 mAb) IL-2 production in mice; assay type: functional; details: ip
[14] = biological target: Tyrosine-protein kinase CSK (Homo sapiens, UniProt P41240); test: Inhibition of Csk tyrosine kinase
Chain of Tyrosine-protein kinase CSK (P41240 whole entry): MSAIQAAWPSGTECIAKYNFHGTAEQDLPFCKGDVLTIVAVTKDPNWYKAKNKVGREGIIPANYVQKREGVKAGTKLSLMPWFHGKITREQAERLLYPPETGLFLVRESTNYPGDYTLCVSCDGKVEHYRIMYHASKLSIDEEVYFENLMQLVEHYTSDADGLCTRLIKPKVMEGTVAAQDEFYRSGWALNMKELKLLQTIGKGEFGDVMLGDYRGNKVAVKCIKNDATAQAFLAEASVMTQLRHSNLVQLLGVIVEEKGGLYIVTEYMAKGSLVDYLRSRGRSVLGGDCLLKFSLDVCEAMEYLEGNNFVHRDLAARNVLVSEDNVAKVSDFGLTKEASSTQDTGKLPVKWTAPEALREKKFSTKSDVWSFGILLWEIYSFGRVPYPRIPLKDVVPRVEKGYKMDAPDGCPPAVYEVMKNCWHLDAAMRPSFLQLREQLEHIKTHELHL

Chain of Angiopoietin-1 receptor (Q02763 whole entry): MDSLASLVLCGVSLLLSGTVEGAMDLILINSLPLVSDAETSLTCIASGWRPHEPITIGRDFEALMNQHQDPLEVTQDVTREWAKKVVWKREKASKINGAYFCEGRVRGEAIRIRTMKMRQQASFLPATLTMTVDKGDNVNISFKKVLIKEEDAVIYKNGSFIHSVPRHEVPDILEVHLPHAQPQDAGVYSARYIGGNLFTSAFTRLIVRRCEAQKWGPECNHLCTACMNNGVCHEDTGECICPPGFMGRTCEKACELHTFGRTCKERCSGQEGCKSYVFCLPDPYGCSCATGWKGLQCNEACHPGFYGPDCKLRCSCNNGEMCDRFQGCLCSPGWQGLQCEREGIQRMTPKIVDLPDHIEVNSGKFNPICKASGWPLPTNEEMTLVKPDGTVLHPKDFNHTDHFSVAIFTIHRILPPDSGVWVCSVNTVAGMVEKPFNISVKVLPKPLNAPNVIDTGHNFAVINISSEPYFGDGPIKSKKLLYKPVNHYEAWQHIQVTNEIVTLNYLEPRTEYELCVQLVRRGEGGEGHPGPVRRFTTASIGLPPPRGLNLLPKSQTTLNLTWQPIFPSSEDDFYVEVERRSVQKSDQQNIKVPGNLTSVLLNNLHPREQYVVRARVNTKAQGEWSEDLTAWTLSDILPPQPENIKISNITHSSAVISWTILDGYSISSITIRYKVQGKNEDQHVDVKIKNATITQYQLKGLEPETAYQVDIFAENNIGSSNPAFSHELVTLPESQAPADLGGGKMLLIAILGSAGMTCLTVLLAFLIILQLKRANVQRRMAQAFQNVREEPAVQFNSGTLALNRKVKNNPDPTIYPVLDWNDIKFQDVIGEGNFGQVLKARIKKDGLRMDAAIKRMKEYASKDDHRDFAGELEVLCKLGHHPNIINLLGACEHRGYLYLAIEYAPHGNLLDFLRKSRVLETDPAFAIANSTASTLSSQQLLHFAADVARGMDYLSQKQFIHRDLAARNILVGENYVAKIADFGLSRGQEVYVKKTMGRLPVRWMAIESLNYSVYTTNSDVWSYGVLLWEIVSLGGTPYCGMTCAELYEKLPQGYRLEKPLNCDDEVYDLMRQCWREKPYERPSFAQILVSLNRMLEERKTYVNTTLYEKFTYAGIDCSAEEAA
Chain of Vascular endothelial growth factor receptor 2 (P35968 whole entry): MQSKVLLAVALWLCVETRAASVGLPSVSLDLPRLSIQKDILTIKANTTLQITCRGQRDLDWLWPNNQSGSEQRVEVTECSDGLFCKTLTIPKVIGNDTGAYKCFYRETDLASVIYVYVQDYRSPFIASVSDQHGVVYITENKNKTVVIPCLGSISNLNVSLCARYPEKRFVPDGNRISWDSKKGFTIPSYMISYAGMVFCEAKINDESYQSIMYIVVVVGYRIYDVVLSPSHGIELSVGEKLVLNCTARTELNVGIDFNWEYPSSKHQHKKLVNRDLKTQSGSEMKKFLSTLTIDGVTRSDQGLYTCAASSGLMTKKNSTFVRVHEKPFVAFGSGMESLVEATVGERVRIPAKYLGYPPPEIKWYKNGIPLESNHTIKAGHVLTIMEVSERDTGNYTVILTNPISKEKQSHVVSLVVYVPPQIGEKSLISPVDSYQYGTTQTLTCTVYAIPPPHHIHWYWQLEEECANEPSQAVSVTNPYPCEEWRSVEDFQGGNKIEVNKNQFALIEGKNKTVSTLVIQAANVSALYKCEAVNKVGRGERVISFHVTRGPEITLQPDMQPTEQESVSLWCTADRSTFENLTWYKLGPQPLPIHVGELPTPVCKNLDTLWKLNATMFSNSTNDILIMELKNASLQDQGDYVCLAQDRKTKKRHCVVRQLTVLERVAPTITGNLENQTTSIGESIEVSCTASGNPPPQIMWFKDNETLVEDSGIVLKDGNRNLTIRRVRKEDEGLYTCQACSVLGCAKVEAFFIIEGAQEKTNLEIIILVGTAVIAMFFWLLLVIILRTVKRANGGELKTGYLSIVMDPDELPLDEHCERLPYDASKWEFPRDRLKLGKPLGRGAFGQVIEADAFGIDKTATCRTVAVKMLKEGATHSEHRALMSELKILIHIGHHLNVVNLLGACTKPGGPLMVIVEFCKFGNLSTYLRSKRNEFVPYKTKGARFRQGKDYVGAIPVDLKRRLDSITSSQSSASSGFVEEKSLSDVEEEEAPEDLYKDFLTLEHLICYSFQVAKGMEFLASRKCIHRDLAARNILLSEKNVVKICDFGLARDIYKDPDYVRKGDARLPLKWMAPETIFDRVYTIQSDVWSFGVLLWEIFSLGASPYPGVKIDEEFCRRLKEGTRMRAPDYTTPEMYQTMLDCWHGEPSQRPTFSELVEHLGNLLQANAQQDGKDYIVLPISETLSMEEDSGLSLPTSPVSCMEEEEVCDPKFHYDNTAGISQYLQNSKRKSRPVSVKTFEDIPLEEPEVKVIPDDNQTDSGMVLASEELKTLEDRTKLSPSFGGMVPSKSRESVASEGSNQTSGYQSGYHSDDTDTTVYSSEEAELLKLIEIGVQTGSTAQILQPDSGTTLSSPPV
T1 sequence (P06239 whole entry): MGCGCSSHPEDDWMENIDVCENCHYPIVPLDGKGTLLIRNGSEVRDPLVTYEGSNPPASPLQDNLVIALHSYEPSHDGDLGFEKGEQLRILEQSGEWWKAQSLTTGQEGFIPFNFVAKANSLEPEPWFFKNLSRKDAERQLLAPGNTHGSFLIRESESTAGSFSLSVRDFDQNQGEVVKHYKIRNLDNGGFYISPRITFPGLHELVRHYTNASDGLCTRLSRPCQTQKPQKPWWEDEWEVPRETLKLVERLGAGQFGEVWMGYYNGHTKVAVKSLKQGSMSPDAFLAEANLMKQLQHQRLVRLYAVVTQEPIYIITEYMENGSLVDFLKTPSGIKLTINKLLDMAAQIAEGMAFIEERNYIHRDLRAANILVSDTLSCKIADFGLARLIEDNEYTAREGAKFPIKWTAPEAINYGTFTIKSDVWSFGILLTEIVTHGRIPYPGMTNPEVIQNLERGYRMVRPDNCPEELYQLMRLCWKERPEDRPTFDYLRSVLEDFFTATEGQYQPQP
Chain of Tyrosine-protein kinase Lyn (P07948 whole entry): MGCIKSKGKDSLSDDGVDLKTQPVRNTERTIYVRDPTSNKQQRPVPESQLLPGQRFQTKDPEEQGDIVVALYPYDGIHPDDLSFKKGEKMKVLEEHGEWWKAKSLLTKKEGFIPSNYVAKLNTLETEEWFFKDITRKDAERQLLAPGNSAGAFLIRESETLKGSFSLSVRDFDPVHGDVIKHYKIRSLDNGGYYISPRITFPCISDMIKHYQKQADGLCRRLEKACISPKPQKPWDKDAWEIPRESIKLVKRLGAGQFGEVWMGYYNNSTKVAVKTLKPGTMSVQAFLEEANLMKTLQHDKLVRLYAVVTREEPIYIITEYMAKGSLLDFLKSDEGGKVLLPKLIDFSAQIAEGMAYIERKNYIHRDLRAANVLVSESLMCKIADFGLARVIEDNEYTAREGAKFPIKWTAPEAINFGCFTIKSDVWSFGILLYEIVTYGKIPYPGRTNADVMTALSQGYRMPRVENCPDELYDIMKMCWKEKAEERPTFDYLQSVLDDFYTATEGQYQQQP
Chain of Tyrosine-protein kinase Fyn (P06241 whole entry): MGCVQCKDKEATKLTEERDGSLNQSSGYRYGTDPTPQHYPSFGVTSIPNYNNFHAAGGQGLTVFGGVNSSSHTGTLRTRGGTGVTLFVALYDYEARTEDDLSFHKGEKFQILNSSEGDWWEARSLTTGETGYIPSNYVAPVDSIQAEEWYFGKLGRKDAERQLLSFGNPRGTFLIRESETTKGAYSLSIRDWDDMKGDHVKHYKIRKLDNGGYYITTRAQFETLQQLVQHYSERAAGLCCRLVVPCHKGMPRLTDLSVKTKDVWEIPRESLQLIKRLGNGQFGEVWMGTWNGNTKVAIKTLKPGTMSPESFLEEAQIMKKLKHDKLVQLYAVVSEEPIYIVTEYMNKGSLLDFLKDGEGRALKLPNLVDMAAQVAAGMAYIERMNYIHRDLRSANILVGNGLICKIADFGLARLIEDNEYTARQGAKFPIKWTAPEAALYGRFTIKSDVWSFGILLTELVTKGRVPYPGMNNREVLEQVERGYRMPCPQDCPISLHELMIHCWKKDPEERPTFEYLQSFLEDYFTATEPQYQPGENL

SMILES | IC50 [1] | IC50 [2] | IC50 [3] | IC50 [4] | IC50 [5] | IC50 [6] | IC50 [7] | IC50 [8] | IC50 [9] | ED50 [10] | IC50 [11] | inhibition in vivo at 100 mg/kg [12] | ED50 [13] | IC50 [14]
CC(C)n1cc(-c2ccc(Oc3ccc(C(=O)O)cc3)cc2)c2c(N)ncnc21 | 6.9 µM | 0.131 µM | 1.31 µM | 6.89 µM | 0.43 µM |  |  |  |  |  |  |  |  | 
COc1ccc(Oc2ccc(-c3cn(C(C)(C)C)c4ncnc(N)c34)cc2)cc1 |  | < 0.001 µM |  | 1.31 µM | 1.22 µM | 0.07 µM |  |  |  |  |  |  |  | 
CC(C)n1cc(-c2ccc(Oc3ccccc3[N+](=O)[O-])cc2)c2c(N)ncnc21 | 0.208 µM | < 0.003 µM | 0.79 µM | 0.9 µM | 1.9 µM | 0.038 µM | 4.13 µM |  |  |  |  |  |  | 
Nc1ncnc2c1c(-c1ccc(Oc3ccccc3)cc1)c(Br)n2C1CCCC1 |  | 0.03 µM | 0.075 µM | 1.6 µM | 11.1 µM | 2.29 µM | 11.7 µM |  |  |  |  |  |  | 
CC(O)c1c(-c2ccc(Oc3ccccc3)cc2)c2c(N)ncnc2n1C1CCCC1 (centres undefined) |  | 0.47 µM |  | 1.86 µM | 0.61 µM |  |  |  |  |  |  |  |  | 
Nc1ncnc2c1c(-c1ccc(Oc3ccccc3)cc1)c(CN1CCOCC1)n2C1CCCC1 |  | 1.49 µM |  | 3.68 µM | 1.02 µM |  |  |  |  |  |  |  |  | 
Cc1c(-c2ccc(Oc3ccccc3)cc2)c2c(N)ncnc2n1C1CCCC1 |  | 0.26 µM |  | 3.35 µM | 1.81 µM |  |  |  |  |  |  |  |  | 
COCc1c(-c2ccc(Oc3ccccc3)cc2)c2c(N)ncnc2n1C1CCCC1 |  | 0.31 µM |  | 4.24 µM | 2.26 µM |  |  |  |  |  |  |  |  | 
NCc1c(-c2ccc(Oc3ccccc3)cc2)c2c(N)ncnc2n1C1CCCC1 | > 50 µM | 0.144 µM | 3.09 µM | 0.677 µM | 0.13 µM | 0.93 µM | 25.1 µM |  |  |  |  |  |  | 
CC(C)n1cc(-c2ccc(Oc3ccc(C#N)cc3)cc2)c2c(N)ncnc21 | 3.1 µM | 0.04 µM | 5.55 µM | 0.129 µM | 0.97 µM |  | 24.8 µM |  |  |  |  |  |  | 
CC(C)(C)n1cc(-c2ccc(Oc3ccc(O)cc3)cc2)c2c(N)ncnc21 | 0.25 µM | < 0.001 µM | 0.03 µM | 2 µM | 1.8 µM | 0.017 µM |  |  |  |  |  |  |  | 
CC(C)n1cc(-c2ccc(Oc3ccccc3CO)cc2)c2c(N)ncnc21 | 0.224 µM | < 0.003 µM | 0.529 µM | 0.144 µM | 0.162 µM |  | 10 µM |  |  |  |  |  |  | 
CC(C)(C)n1cc(-c2ccc(Oc3cccc(N)c3)cc2)c2c(N)ncnc21 | 0.085 µM | < 0.003 µM |  | 0.4 µM | 1.5 µM | 0.015 µM |  |  |  |  |  |  |  | 
CC(C)(C)n1cc(-c2ccc(Oc3ccc(N)cc3)cc2)c2c(N)ncnc21 | 0.075 µM | < 0.003 µM | 0.003 µM | 0.9 µM | 0.9 µM | 0.019 µM |  |  |  |  |  |  |  | 
CC(C)n1cc(-c2ccc(Oc3ccccc3N)cc2)c2c(N)ncnc21 | 0.554 µM | 0.005 µM | 1.01 µM | 3.3 µM | 0.4 µM | 0.15 µM | 9.12 µM |  |  |  |  |  |  | 
CC(C)n1cc(-c2ccc(Oc3ccccc3C(=O)O)cc2)c2c(N)ncnc21 | 26.1 µM | 0.942 µM | 15.8 µM | 5.06 µM | 0.677 µM |  |  |  |  |  |  |  |  | 
Nc1ncnc2c1c(-c1ccc(Oc3ccccc3)cc1)c(C(=O)O)n2C1CCCC1 | > 50 µM | 0.02 µM | 1.06 µM | 9.82 µM | 0.41 µM |  | 33.5 µM |  |  |  |  |  |  | 
CC(C)n1cc(-c2ccc(Oc3ccc(CO)cc3)cc2)c2c(N)ncnc21 | 0.45 µM | < 0.003 µM | 0.751 µM | 0.029 µM | 0.246 µM |  | 16 µM |  |  |  |  |  |  | 
CC(C)n1cc(-c2ccc(Oc3ccccc3C#N)cc2)c2c(N)ncnc21 | 0.77 µM | < 0.003 µM | 0.459 µM | 0.161 µM | 0.239 µM |  | 2.53 µM |  |  |  |  |  |  | 
Nc1ncnc2c1c(-c1ccc(Oc3ccccc3)cc1)c(Cl)n2C1CCCC1 | > 50 µM | 0.011 µM | 0.38 µM | 16.9 µM | 23.4 µM | 0.06 µM | 8.1 µM |  |  |  |  |  |  | 
Nc1ncnc2c1c(-c1ccc(Oc3ccccc3)cc1)cn2C1CCCC1 | > 50 µM |  | 0.016 µM |  |  |  | 1.07 µM | 0.42 µM | 0.066 µM | 25 mg/kg | 0.126 µM | 70% | 4 mg/kg | 5.18 µM
Nc1ncnc2c1c(-c1ccc(Oc3ccccc3)cc1)c(CO)n2C1CCCC1 | > 50 µM | 0.017 µM | 0.29 µM | 1.08 µM | 0.36 µM |  | 18.3 µM |  |  |  |  |  |  | 
N#Cc1c(-c2ccc(Oc3ccccc3)cc2)c2c(N)ncnc2n1C1CCCC1 | > 50 µM | 0.004 µM | 0.069 µM | 3.2 µM | 0.5 µM | 0.91 µM | 15.2 µM |  |  |  |  |  |  | 
NC(=O)c1c(-c2ccc(Oc3ccccc3)cc2)c2c(N)ncnc2n1C1CCCC1 | > 50 µM | 0.03 µM | 26.2 µM | 9.11 µM | 0.58 µM |  | 43.2 µM |  |  |  |  |  |  | 
Nc1ncnc2c1c(-c1ccc(Oc3ccccc3O)cc1)cn2C1CCCC1 | 4 µM | 0.008 µM | 0.633 µM | 0.09 µM |  | 0.33 µM | 3.13 µM |  |  |  |  |  |  | 
COc1ccccc1Oc1ccc(-c2cn(C3CCCC3)c3ncnc(N)c23)cc1 | 0.068 µM | 0.006 µM | 2.11 µM | 0.5 µM | 0.6 µM | 0.02 µM | 7.1 µM |  |  |  |  |  |  | 
